In assay [1] the target is T1, D(2) dopamine receptor (Homo sapiens, UniProt P14416). The experiment in a line: ChEBML_59152. An excerpt:
(§1) Binding affinity against dopamine receptor D2 by using [3H]spiperone as radioligand in caudate-putamen of monkey

For assay [2], the target named is T1, D(2) dopamine receptor. The assay is described as §1.
Assay [3] deals with D(1A) dopamine receptor. Nature of the assay: Binding affinity against dopamine receptor D1 by using [3H]-SCH- 23390 as radioligand in caudate-putamen of monkey.

pKi: −log10 of the molar value.

T1 sequence (P14416 whole entry): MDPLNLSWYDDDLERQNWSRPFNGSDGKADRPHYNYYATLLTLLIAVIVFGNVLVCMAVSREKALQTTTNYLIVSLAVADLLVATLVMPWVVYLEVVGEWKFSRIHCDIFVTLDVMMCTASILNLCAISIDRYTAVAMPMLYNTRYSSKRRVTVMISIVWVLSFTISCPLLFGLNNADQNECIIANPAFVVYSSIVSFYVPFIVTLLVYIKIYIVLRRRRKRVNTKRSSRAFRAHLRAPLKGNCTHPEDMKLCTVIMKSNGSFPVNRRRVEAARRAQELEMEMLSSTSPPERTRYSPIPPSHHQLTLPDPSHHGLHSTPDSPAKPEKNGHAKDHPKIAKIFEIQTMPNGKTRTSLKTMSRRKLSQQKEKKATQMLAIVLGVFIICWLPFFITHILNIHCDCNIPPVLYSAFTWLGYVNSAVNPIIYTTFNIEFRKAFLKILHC

`CN1CCc2cc(Br)c(O)cc2C(c2ccc(NC(=S)Nc3ccc4c(c3)C(=O)OC43c4ccc(O)cc4Oc4cc(O)ccc43)cc2)C1` (stereo not given): the pKi in assay [1] was less than 5.30.
Compound `CCCN(CCc1ccc(NC(=S)Nc2ccc3c(c2)C(=O)OC32c3ccc(O)cc3Oc3cc(O)ccc32)cc1)[C@@H]1CCc2c(O)cccc2C1` gave a pKi in assay [2] of 6.96.
In the case of `CN1CCc2cc(Br)c(O)cc2C(c2ccc(Nc3ccc([N+](=O)[O-])c4n[o+][n-]c34)cc2)C1` (stereo not given), in assay [1], the negative logarithm of the Ki (pKi) was 6.15.
Regarding `O=C1OC2(c3ccc(O)cc3Oc3cc(O)ccc32)c2ccc(NC(=S)Nc3ccc(C4CNCCc5cc(O)c(O)cc54)cc3)cc21` (stereo not given), the pKi in assay [3] was 5.00.
For the compound `CN1CCc2cc(Br)c(O)cc2C(c2ccc(N)cc2)C1` (stereo not given), the pKi in assay [1] was 5.80.
`CCCN(CCc1ccc(N)cc1)C1CCc2c(O)cccc2C1` (racemic): the results for the negative logarithm of the Ki (pKi) in assay [3] and in assay [2] were 6.15 and 8.17, respectively.
Turning to `O=C(CCCN1CCC2(CC1)C(=O)N(CCc1ccc(Nc3ccc([N+](=O)[O-])c4n[o+][n-]c34)cc1)CN2c1ccccc1)c1ccc(F)cc1`, the pKi in assay [1] was 9.18.
As for `CCCN(CCc1ccc(NC(=S)Nc2ccc3c(c2)C(=O)OC32c3ccc(O)cc3Oc3cc(O)ccc32)cc1)[C@H]1CCc2c(O)cccc2C1`, the pKi in assay [1] was 8.32.
Turning to `CCCN(CCc1ccc(NC(=S)Nc2ccc3c(c2)C(=O)OC32c3ccc(O)cc3Oc3cc(O)ccc32)cc1)C1CCc2c(O)cccc2C1` (racemic), the pKi in assay [1] was 8.15.
On to `CCCN(CCc1ccc(C)cc1)[C@H]1CCc2c(O)cccc2C1`, for which the pKi is 6.57 in assay [3] and 8.17 in assay [2].
`CCCN(CCc1ccc(Nc2ccc([N+](=O)[O-])c3n[o+][n-]c23)cc1)C1CCc2c(O)cccc2C1` (stereo not given) gave a pKi in assay [2] of 9.35.
`CCCN(CCc1ccc(C)cc1)[C@@H]1CCc2c(O)cccc2C1`: the pKi in assay [3] is 5.31; in assay [2], 6.77.

Usually pKi stands for the Ki on a negative log10 scale, so that one unit is a factor of ten.

For the origin of these results see BindingDB's records for doi:10.1021/jm00115a012 (Research Biochemicals, 1991).
